In US6555523B1, “Use of cirsiliol and derivatives to treat infections” (priority 1999, dated 2003):
Converted amounts (≈) assume the structure as drawn. “And” between values parts separate entries of the source, which are not always exact repeats. Identical values can stand only once.

How the values were obtained:
parainfluenza HA-1 = test: CPE-inhibition (microscopic) assay, Protocol A2; assay type: cell-based, parainfluenza virus; details: HEp-2, cell Hep2 (cell blank for 3-(4′-bromophenyl) coumarin)
T, gondii RH = test: In-vitro anti Toxoplasma gondii activity in HFF, Protocol C; assay type: cell-based
Procedure: Protocol C—In-vitro testing of anti Toxoplasma gondii activity of Cirsiliol and Naringin. The compounds were tested in an in vitro cell culture assay utilizing human fibroblasts (HFF line) as the host cell. RH strain Toxoplasma gondii that has been transfected with β-galactosidase as a marker for quantitative detection of parasite number (RH Bgal), was used as the challenge organism. The compounds ere dissolved, and then diluted in cell culture medium at least 100 fold for the assays. Controls containing the maximum concentration of solvent used in the assay were run with each test. The active drugs were added and the monolayers were infected immediately at the beginning of each test. Extracellular T. gondii were removed by rinsing the monolayer, and infected host cells remained in contact with the cells for the entire test period. Each test was terminated when at least four parasite doublings could be visually identified in the control monolayers, and parasite numbers were quantitated by standard colorimetric assay for bet galactosidase activity with optical density at 550 nm as the readout. The optical density in this assay has a direct and linear correlation with parasite numbers over a 5-log parasite concentration. Toxicity in the host cells was determined by inspection for cytopathic effects and visual evaluation of cell growth.

HIV Ba-L = test: Anti-HIV assay in fresh human monocyte-macrophages (p24 ELISA), Protocol D2; assay type: cell-based; details: Human immunodeficiency virus 1, BAL, Macrophage
Procedure: Protocol D2—Assay in fresh human monocyte-macrophages. […] The cells are placed in a 96-well microtiter plate at 37° C. for 2 hours. Non-adherent cells are removed by vigorously washing six times. […] The cultures are carefully monitored for confluency during this incubation period. Infection of the cells is performed with monocytotropic HIV-1 isolates. High titer pools of each of these viruses are harvested from infected cultures of peripheral blood adherent cells and frozen in 1.0 ml aliquots at −80° C. Monocytemacrophage monolayers are infected at a multiplicity of infection (“MOI”) of 0.1.
(§3) At 2 days post-infection, the medium is decanted and the cultures washed twice with complete medium in order to remove excess virus. Fresh medium alone or medium containing the appropriate concentration of drug is added and incubation continued for an additional five days. XTT staining for cytotoxicity and HIV p24 ELISA assays for production of p24 core antigen are performed on Day 7 post infection. This is performed according the ELISA kit assay manufacturers recommendations. Control curves are generated in each assay to accurately quantitate the amount of capsid protein in each sample. Data is obtained by spectrophotometric analysis at 450 nm using a Molecular Devices Vmax plate reader. P24 concentrations are calculated form the optical density values by use of the Molecular Device software package Soft Max.
Most of the values were based on average values that were obtained from duplicate or triplicate assay wells.

[1] = Drug cytotoxicity by XTT in monocyte-macrophages, Protocol D2; assay type: cell-based; details: human; macrophage; D2; naringin solubilised in 35% EtOH; read-out: TC50
Procedure: Protocol D2—Assay in fresh human monocyte-macrophages. […] The cells are placed in a 96-well microtiter plate at 37° C. for 2 hours. Non-adherent cells are removed by vigorously washing six times. […] The cultures are carefully monitored for confluency during this incubation period. Infection of the cells is performed with monocytotropic HIV-1 isolates. […] Monocytemacrophage monolayers are infected at a multiplicity of infection (“MOI”) of 0.1.
as §3

[2] = tested on: Bovine Viral Diarrhea Virus; test: Plaque formation by Bovine Viral Diarrhea Virus in MDBK cultures; assay type: cell-based, bovine viral diarrhea virus (BVDV); details: for Number of plaques: Tests 1-3, control 68; for % Reduction: plaques
Procedure: HCV in vitro assays. No well-accepted model exists for HCV and new compounds for use in the treatment of HCV are frequently tested for activity against bovine viral diarrhea virus (BVDV), a virus which is related to HCV.
A representative compound according to the present invention, naringin (i.e., 7-neohesperidoside, 5, 4′ dihydroxyflavanone) was tested for anti-BVDV activity in MDBK cells.

hepatitis C virus = test: Human HCV clinical trial, one patient (HCV and HIV infected), naringin 4 g orally three times daily: hepatitis C RNA; assay type: in vivo; details: for Hepatitis C by PCR log 10: Day 0: 6.5; for Hepatitis C RNA ultraquant: Day 0: 2,871,300, ref. <200
Procedure: (§1) Human HCV clinical trial. A human patient suffering from hepatitis C virus was treated according to the following regimen: initial dosing beginning on Day 0 (see Table C), three times daily, the patient ingested 4 g of naringin orally, and then drank hot tea; in later days, the patient ingested, three times daily, 4 g of naringin mixed in hot tea. This patient also suffered from HIV infection.
(§2) The tables below, labeled part 1 through part 4, show data from this patients' bloodwork on Day 0 (when treatment according to this invention was initiated), Day 3 (3 days after Day 0), Day 6 (6 days after Day 0) and Day 9 (9 days after Day 0). In addition, the tables include data from this patients' bloodwork 72 days before Day 0 (“Day −72”).

[3] = Human HCV clinical trial, one patient (HCV and HIV infected), naringin 4 g orally three times daily: bloodwork and urine values; assay type: in vivo; details: for Basophils: Day 0: 0; for Basophils / Eosinophils: ref. 0-5%; for Creatinine: Day 0: 0.5, ref. 0.5-1.2; for Eosinophils: Day 0: 1; for WBC: Day 0: 3.2, ref. 4-11 × 10^3; for RBC: Day 0: 4.7, ref. 3.9-5.1 × 10^6; for Monocytes: Day 0: 5, ref. 0-10%; for Hemoglobin: Day 0: 14, ref. 13.0-17.0; for Lymphocytes: Day 0: 29, ref. 15-50%; for MCH: Day 0: 30; for MCHC: Day 0: 34, ref. 32-36%; for Hematocrit: Day 0: 41.7, ref. 36-46%; for Glucose: Day 0: 76; for SGOT: Day 0: 83; for Platelet Count: Day 0: 96, ref. 150-400 × 10^3; for SGPT: Day 0: 112; for Specific Gravity: ref. 1.005-1.035; for pH: ref. 4.5-7.5; for Acetone, Urine / Bilirubin / Glucose, Urine / Leukocyte esterase / Nitrite / Occult Blood / Protein, Urine: ref. Negative
Procedure: as §1, §2

MDBK cells = details: cattle
Procedure: As a comparison, similar tests were conducted using ribavirin.

in vitro = details: human

C[C@@H]1O[C@@H](O[C@H]2[C@H](Oc3cc(O)c4c(c3)O[C@H](c3ccc(O)cc3)CC4=O)O[C@H](CO)[C@@H](O)[C@@H]2O)[C@H](O)[C@H](O)[C@H]1O [Naringin, 7-neohesperidoside, 5, 4′ dihydroxyflavanone]
IC50 (parainfluenza HA-1): 25 µM | IC50 (T, gondii RH): > 100 µM | IC50 (HIV Ba-L; D2, naringin solubilised in 35% EtOH): 86.2 µM | IC50 (HIV Ba-L; D2, naringin solubilised in 95% EtOH): > 100 µM | CC50 at 7 days [1]: > 100 µM | ID50 ([2]; BVDV plaque formation in MDBK, table footnote, unit from the table's concentration head): 631.39 µg/mL (≈ 1090 µM) | Number of plaques ([2]; naringin 31.25 μg/mL): 65 and 75 and 60 | Number of plaques ([2]; naringin 62.50 μg/mL): 57 and 65 | Number of plaques ([2]; naringin 125.00 μg/mL): 52 and 65 and 61 | Number of plaques ([2]; naringin 250.00 μg/mL): 50 and 58 and 52 | Number of plaques ([2]; naringin 500.00 μg/mL): 32 and 45 and 42 | Number of plaques ([2]; naringin 1000.00 μg/mL): 22 and 25 and 14 | Number of plaques ([2]; naringin 1500.00 μg/mL): 8 and 11 | Number of plaques ([2]; naringin 2000.00 μg/mL): 4 and 3 | % Reduction ([2]; naringin 31.25 μg/mL): 2.39% | % Reduction ([2]; naringin 62.50 μg/mL): 12.64% | % Reduction ([2]; naringin 125.00 μg/mL): 13.12% | % Reduction ([2]; naringin 250.00 μg/mL): 21.91% | % Reduction ([2]; naringin 500.00 μg/mL): 41.92% | % Reduction ([2]; naringin 1000.00 μg/mL): 70.22% | % Reduction ([2]; naringin 1500.00 μg/mL): 86.82% | % Reduction ([2]; naringin 2000.00 μg/mL): 95.11% | Hepatitis C by PCR log 10 (hepatitis C virus; Day 3): 6.2 | Hepatitis C RNA ultraquant (hepatitis C virus; Day 3): 1,500,900 copies/mL | Hepatitis C by PCR log 10 (hepatitis C virus; Day 6): 5.5 | Hepatitis C RNA ultraquant (hepatitis C virus; Day 6): 340,540 copies/mL | Hepatitis C by PCR log 10 (hepatitis C virus; Day 9): 4.9 | Hepatitis C RNA ultraquant (hepatitis C virus; Day 9): 78,592 copies/mL | patient's hepatitis C PCR values (hepatitis C virus; summary in words, Day 0 to Day 9): drastic reduction | Appearance ([3]; Day 3): Clear | Color ([3]; Day 3): Yellow | Basophils ([3]; Day 3): 1% | Creatinine ([3]; Day 3): 0.5 mg/dL | Eosinophils ([3]; Day 3): 0% | WBC ([3]; Day 3): 3.3 × 10^3 /mm^3 | RBC ([3]; Day 3): 4.71 × 10^6 /mm^3 | Monocytes ([3]; Day 3): 10% | Hemoglobin ([3]; Day 3): 13.9 g/dL | Lymphocytes ([3]; Day 3): 25% | MCH ([3]; Day 3): 30 picograms | MCHC ([3]; Day 3): 34% | Hematocrit ([3]; Day 3): 40.5% | Glucose ([3]; Day 3): 98 mg/dL | SGOT ([3]; Day 3): 62 u/L | Platelet Count ([3]; Day 3): 104 × 10^3 /mm^3 | SGPT ([3]; Day 3): 102 u/L | Specific Gravity ([3]; Day 3): 1.024 | pH ([3]; Day 3): 5 | Acetone, Urine ([3]; Day 3): Negative | Bilirubin ([3]; Day 3): Negative | Glucose, Urine ([3]; Day 3): Negative | Leukocyte esterase ([3]; Day 3): Negative | Nitrite ([3]; Day 3): Negative | Occult Blood ([3]; Day 3): Negative | Protein, Urine ([3]; Day 3): Negative | Appearance ([3]; Day 6): Clear | Basophils ([3]; Day 6): 1% | Creatinine ([3]; Day 6): 0.5 mg/dL | Eosinophils ([3]; Day 6): 1% | WBC ([3]; Day 6): 3.4 × 10^3 /mm^3 | RBC ([3]; Day 6): 4.6 × 10^6 /mm^3 | Monocytes ([3]; Day 6): 6% | Hemoglobin ([3]; Day 6): 13.7 g/dL | Lymphocytes ([3]; Day 6): 28% | MCH ([3]; Day 6): 30 picograms | MCHC ([3]; Day 6): 34% | Hematocrit ([3]; Day 6): 40.1% | Glucose ([3]; Day 6): 93 mg/dL | SGOT ([3]; Day 6): 38 u/L | Platelet Count ([3]; Day 6): 112 × 10^3 /mm^3 | SGPT ([3]; Day 6): 62 u/L | Specific Gravity ([3]; Day 6): 1.017 | pH ([3]; Day 6): 6 | Acetone, Urine ([3]; Day 6): Negative | Bilirubin ([3]; Day 6): Negative | Glucose, Urine ([3]; Day 6): Negative | Leukocyte esterase ([3]; Day 6): Negative | Nitrite ([3]; Day 6): Negative | Occult Blood ([3]; Day 6): Negative | Protein, Urine ([3]; Day 6): Negative | patient's SGOT values ([3]; summary in words): drastic reduction | patient's SGPT values ([3]; summary in words): drastic reduction | MTC (minimum cytotoxic drug concentration) (MDBK cells): > 2000 µg/mL | CC50 (in vitro): 100 µM
